Laboratory results from US10150737B2, “Compounds for controlling arthropods” (priority 2013, dated 2018).

Assays:
[1] = logP determination by HPLC on a reversed-phase column (C18); format: physicochemical; conditions: for logP^a): HPLC-MS method a); for log P: HPLC-MS; for logP: HPLC, C18 reversed phase, acetonitrile/water with formic acid, EEC Directive 79/831 Annex V.A8
Ctenocephalides felis = Ctenocephalides felis - oral test; format: in vivo; conditions: application rate 100 ppm in citrated cattle blood; after 2 days
Protocol: (§1) Solvent: dimethyl sulphoxide
For the purpose of producing an appropriate active ingredient formulation, 10 mg of active ingredient are mixed with 0.5 ml of dimethyl sulphoxide. Dilution with citrated cattle blood gives the desired concentration.
About 20 unfed adult cat fleas (Ctenocephalides felis) are placed into a chamber which is closed at the top and bottom with gauze. A metal cylinder whose bottom end is closed with parafilm is placed onto the chamber. The cylinder contains the blood/active ingredient preparation, which can be imbibed by the fleas through the parafilm membrane.
After 2 days, the kill in % is determined. 100% means that all of the fleas have been killed; 0% means that none of the fleas have been killed.

Phaedon cochleariae = Phaedon cochleariae - spray test; format: in vivo; conditions: larvae on Chinese cabbage leaf discs, after 7 days
Protocol: (§2) Solvent: 78.0 parts by weight of acetone and 1.5 parts by weight of dimethylformamide
(§3) Emulsifier: alkylaryl polyglycol ether
(§4) To produce an appropriate active ingredient formulation, 1 part by weight of active ingredient is dissolved using the specified parts by weight of solvent and made up with water containing an emulsifier concentration of 1000 ppm until the desired concentration is attained. To produce further test concentrations, the preparation is diluted with emulsifier-containing water.
Discs of Chinese cabbage leaves (Brassica pekinensis) are sprayed with an active ingredient formulation of the desired concentration and, after drying, populated with larvae of the mustard beetle (Phaedon cochleariae).
After 7 days, efficacy in % is determined. 100% means that all the beetle larvae have been killed; 0% means that no beetle larvae have been killed.

Tetranychus urticae = Tetranychus urticae - spray test, OP-resistant; format: in vivo; conditions: bean leaf discs, after 6 days
Protocol: as §2, §3, §4
Discs of bean leaves (Phaseolus vulgaris) infested by all stages of the greenhouse red spider mite (Tetranychus urticae) are sprayed with an active ingredient formulation of the desired concentration.
After 6 days, efficacy in % is determined. 100% means that all the spider mites have been killed; 0% means that none of the spider mites have been killed.

Spodoptera frugiperda = Spodoptera frugiperda - spray test; format: in vivo; conditions: caterpillars on maize leaf discs, after 7 days
Protocol: as §2, §3, §4
Leaf discs of maize (Zea mays) are sprayed with an active ingredient formulation of the desired concentration and, after drying, populated with caterpillars of the armyworm (Spodoptera frugiperda).
After 7 days, efficacy in % is determined. 100% means that all the caterpillars have been killed; 0% means that no caterpillars have been killed.

Boophilus microplus = Boophilus microplus - injection test; format: in vivo; conditions: application rate 20 μg/animal; injection into engorged adult female ticks; after 7 days
Protocol: as §1
To produce an appropriate active ingredient formulation, 10 mg of active ingredient are mixed with 0.5 ml of solvent and the concentrate is diluted with solvent to the desired concentration.
1 μl of the active ingredient solution is injected into the abdomen of 5 engorged adult female cattle ticks (Boophilus microplus). The animals are transferred into dishes and kept in a climate-controlled room.
Efficacy is assessed after 7 days by laying of fertile eggs. Eggs which are not visibly fertile are stored in a climate-controlled cabinet until the larvae hatch after about 42 days. An efficacy of 100% means that none of the ticks has laid any fertile eggs; 0% means that all the eggs are fertile.

[2] = reversed-phase column (C18), Table I-T3

| SMILES | log P [1, 2] | efficacy (Phaedon cochleariae; application rate 100 g/ha) [%] | efficacy (Tetranychus urticae; application rate 100 g/ha) [%] | efficacy (Spodoptera frugiperda; application rate 100 g/ha) [%] | further results |
| --- | --- | --- | --- | --- | --- |
| Cc1ccc(C(=O)NC2CC2)cc1-c1cnn(-c2c(C)cc(C(F)(C(F)(F)F)C(F)(F)F)cc2C)c1 [I-T3-16] |  |  |  |  | logP^a) [1]: 4.4; logP^a) [1, 2]: 4.4; efficacy (kill) (Ctenocephalides felis): 80% |
| CCS(=O)(=O)c1cc(C(F)(F)F)cc(C#N)c1-n1cc(-c2ccc(Cl)c(C(=O)NC3(C#N)CC3)c2)cn1 [I-T3-190] | 2.9 | 100 | 100 |  |  |
| N#CC1(NC(=O)c2cc(-c3ccn(-c4c(Cl)cc(C(F)(C(F)(F)F)C(F)(F)F)cc4Cl)c3)cnc2Cl)CC1 [I-T46-5] |  | 100 | 100 | 100 | logP [1]: 4.4 |
| CN(C(=O)c1cc(-c2cnn(-c3c(Cl)cc(C(O)(C(F)(F)F)C(F)(F)F)cc3Cl)c2)cnc1Cl)C1(C#N)CC1 [I-T3-223] | 3.3 | 100 | 100 |  |  |
| O=C(NC1CC1)c1cc(-c2cnn(-c3c(Cl)cc(C(F)(C(F)(F)F)C(F)(F)F)cc3Cl)c2)cnc1N1CCCC1 [I-T3-135] | 4.3 |  |  |  | logP^a) ([1]; reversed-phase column (C18)): 4.3; efficacy (kill) (Ctenocephalides felis): 100% |
| N#CC1(NC(=O)c2cc(-c3cnn(-c4c(Cl)cc(C(F)(F)F)cc4[N+](=O)[O-])c3)ccc2Cl)CC1 [I-T3-169] | 3.2 | 100 | 100 | 83 |  |
| N#CC1(NC(=O)c2cccc(-c3cnn(-c4c(Cl)cc(C(F)(C(F)(F)F)C(F)(F)F)cc4Cl)c3)c2F)CC1 [I-T3-22] |  |  |  |  | logP^a) [1]: 4.1; logP^a) [1, 2]: 4.1; efficacy (Phaedon cochleariae; application rate 500 g/ha): 100%; efficacy (Spodoptera frugiperda; application rate 500 g/ha): 100%; efficacy (Tetranychus urticae; application rate 500 g/ha): 100% |
| CCS(=O)(=O)c1cc(C(F)(C(F)(F)F)C(F)(F)F)cc(S(=O)(=O)CC)c1-n1cc(-c2ccc(Cl)c(C(=O)NC3(C#N)CC3)c2)cn1 [I-T3-198] | 3.7 | 100 |  | 100 |  |
| Cc1cc(C(F)(C(F)(F)F)C(F)(F)F)cc(C)c1-n1cc(-c2cc(C(=O)NC3CC3)c(F)cc2Cl)cn1 [I-T3-11] |  |  |  |  | logP^a) [1]: 4.9; logP^a) [1, 2]: 4.9; efficacy (laying of fertile eggs) (Boophilus microplus): 100%; efficacy (kill) (Ctenocephalides felis): 95% |
| CN(C(=O)c1cc(-c2ccn(-c3c(Cl)cc(C(F)(C(F)(F)F)C(F)(F)F)cc3Cl)c2)cnc1Cl)C1CC1 [I-T46-3] |  | 100 |  | 100 | logP [1]: 5.0 |
| CCS(=O)(=O)c1cc(C(F)(F)F)cc(Cl)c1-n1cc(-c2ccc(Cl)c(C(=O)NC3(C#N)CC3)c2)cn1 [I-T3-183] | 3.1 | 100 | 100 |  |  |
| O=C(NC1CC1)c1cc(-c2cnn(-c3ncc(C(F)(C(F)(F)F)C(F)(F)F)cc3Cl)c2)ccc1Cl [I-T3-152] | 4.1 | 100 |  | 100 | logP^a) ([1]; reversed-phase column (C18)): 4.1 |
| CCSc1cc(C(F)(F)F)cc(C#N)c1-n1cc(-c2ccc(Cl)c(C(=O)NC3(C#N)CC3)c2)cn1 [I-T3-177] | 3.4 | 100 | 100 | 83 |  |
| CCSc1cc(C(F)(F)F)cc(Cl)c1-n1cc(-c2ccc(Cl)c(C(=O)NC3CC3)c2)cn1 [I-T3-172] | 3.9 | 100 | 90 |  |  |
| CCSc1cc(C(F)(C(F)(F)F)C(F)(F)F)cc(SCC)c1-n1cc(-c2ccc(Cl)c(C(=O)NC3(C#N)CC3)c2)cn1 [I-T3-191] | 4.7 | 100 |  | 100 |  |
| CN(C(=O)c1cc(-c2ccn(-c3c(Cl)cc(C(F)(C(F)(F)F)C(F)(F)F)cc3Cl)c2)cnc1Cl)C1(C#N)CC1 [I-T46-6] |  | 100 | 100 | 100 | logP [1]: 4.8 |
| Cc1cc(C(F)(C(F)(F)F)C(F)(F)F)cc(C(F)(F)F)c1-n1cc(-c2cnc(Cl)c(C(=O)NCC3(C#N)CC3)c2)cn1 [I-T3-197] | 4.0 | 100 | 100 | 100 |  |
| N#CC1(NC(=O)c2cc(-c3cnn(-c4c(Cl)cc(C(O)(C(F)(F)F)C(F)(F)F)cc4Cl)c3)cnc2Cl)CC1 [I-T3-222] | 3.0 | 100 | 100 |  |  |
| Cc1cc(C(F)(C(F)(F)F)C(F)(F)F)cc(C)c1-n1cc(-c2cc(C(=O)NC3(C#N)CC3)ccc2F)cn1 [I-T3-19] |  |  |  |  | logP^a) [1]: 4.3; logP^a) [1, 2]: 4.3; efficacy (laying of fertile eggs) (Boophilus microplus): 100%; efficacy (kill) (Ctenocephalides felis): 95%; efficacy (Phaedon cochleariae; application rate 500 g/ha): 100%; efficacy (Spodoptera frugiperda; application rate 500 g/ha): 100% |
| O=C(NC1CC1)c1cc(-c2cnn(-c3c(Cl)cc(C(O)(C(F)(F)F)C(F)(F)F)cc3Cl)c2)cnc1Cl [I-T3-221] | 3.0 | 100 | 100 |  |  |
| CC[S+]([O-])c1cc(C(F)(C(F)(F)F)C(F)(F)F)cc(Cl)c1-n1cc(-c2ccc(Cl)c(C(=O)NC3(C#N)CC3)c2)cn1 (centres unmarked) [I-T3-195] | 3.8 | 100 | 90 |  |  |
| CCSc1cc(C(F)(C(F)(F)F)C(F)(F)F)cc(Cl)c1-n1cc(-c2ccc(Cl)c(C(=O)NC3(C#N)CC3)c2)cn1 [I-T3-192] | 4.5 | 100 | 100 | 100 |  |
| CCS(=O)(=O)c1cc(C(F)(F)F)cc(Cl)c1-n1cc(-c2ccc(Cl)c(C(=O)NC3CC3)c2)cn1 [I-T3-178] | 3.2 | 100 | 100 |  |  |
| CC[S+]([O-])c1cc(C(F)(F)F)cc(C#N)c1-n1cc(-c2ccc(Cl)c(C(=O)NC3CC3)c2)cn1 (centres unmarked) [I-T3-181] | 2.7 | 100 | 100 |  |  |
| CCS(=O)(=O)c1cc(C(F)(F)F)cc(C#N)c1-n1cc(-c2ccc(Cl)c(C(=O)NC3CC3)c2)cn1 [I-T3-180] | 2.8 | 100 | 100 |  |  |
| Cc1cc(C(F)(C(F)(F)F)C(F)(F)F)cc(C)c1-c1ccn(-c2ccc(Cl)c(C(=O)NC3(C#N)CC3)c2)n1 [I-T2-2] |  | 100 |  | 100 | logP^a) [1]: 4.8; efficacy (laying of fertile eggs) (Boophilus microplus): 100% |
